Test results from PubChem BioAssay (NCI).
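A five-concentration, 48-hour dose response in 96-well plates underlies each endpoint, interpolated linearly between surrounding concentrations. GI50 is the concentration that inhibits growth by half. TGI is the concentration that stops growth completely.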

What was measured:
Assay in all cases: NCI anticancer screen, dose series, 48 h
[1] = system: DMS 114 small cell lung
[2] = system: A498 renal
[3] = system: HOP-92 NSCLC
[4] = system: OVCAR-4 ovarian
[5] = system: LOX IMVI melanoma
[6] = system: SK-OV-3 ovarian
[7] = system: RXF 393 renal
[8] = system: HCT-116 colon
[9] = system: KM12 colon
[10] = system: DMS 273 small cell lung
[11] = system: 786-0 renal
[12] = system: MOLT-4 leukemia
[13] = system: KM20L2 colon
[14] = system: SF-539 CNS
[15] = system: HT29 colon
[16] = system: MALME-3M melanoma
[17] = system: HCC-2998 colon
[18] = system: SK-MEL-28 melanoma
[19] = system: OVCAR-8 ovarian
[20] = system: UACC-257 melanoma
[21] = system: U251 CNS
[22] = system: TK-10 renal
[23] = system: SNB-78 CNS
[24] = system: HOP-62 NSCLC
[25] = system: SF-295 CNS
[26] = system: M19-MEL melanoma
[27] = system: M14 melanoma
[28] = system: EKVX NSCLC
[29] = system: A549 NSCLC
[30] = system: NCI-H23 lung
[31] = system: HOP-18 NSCLC
[32] = system: SK-MEL-2 melanoma
[33] = system: UACC-62 melanoma
[34] = system: ACHN renal
[35] = system: CCRF-CEM leukemia
[36] = system: COLO 205 colon
[37] = system: NCI-H226 lung
[38] = system: UO-31 renal
[39] = system: IGROV1 ovarian
[40] = system: LXFL 529 NSCLC
[41] = system: DLD-1 colon
[42] = system: SW-620 colon
[43] = system: NCI-H460 lung
[44] = system: SK-MEL-5 melanoma
[45] = system: RPMI-8226 leukemia
[46] = system: SNB-19 CNS
[47] = system: OVCAR-3 ovarian
[48] = system: HL-60(TB) leukemia
[49] = system: K-562 leukemia
[50] = system: SNB-75 CNS
[51] = system: HCT-15 colon
[52] = system: NCI-H522 lung
[53] = system: SN12C renal

For O=C(c1ccccc1)N1CCN2CCN=C(c3ccccc3)C21c1ccccc1 (centres undefined), the TGI [1] was > 100 µM, the TGI [2] was > 100 µM and the TGI [3] was > 100 µM. For the same compound, the TGI [4] was > 100 µM, the TGI [5] was > 100 µM and the TGI [6] was > 100 µM. For the same compound, the TGI [7] was > 100 µM, the TGI [8] was > 100 µM and the TGI [9] was > 100 µM. For the same compound, the TGI [10] was > 100 µM, the TGI [11] was > 100 µM and the TGI [12] was > 100 µM. For the same compound, the TGI [13] was > 100 µM, the TGI [14] was > 100 µM and the TGI [15] was > 100 µM. For the same compound, the TGI [16] was > 100 µM, the TGI [17] was > 100 µM and the TGI [18] was > 100 µM. For the same compound, the TGI [19] was > 100 µM, the TGI [20] was > 100 µM and the TGI [21] was > 100 µM. The TGI [22] was > 100 µM, the TGI [23] was > 100 µM and the TGI [24] was > 100 µM. The TGI [25] was > 100 µM, the TGI [26] was > 100 µM and the TGI [27] was > 100 µM. The TGI [28] was > 100 µM, the TGI [29] was > 100 µM and the TGI [30] was > 100 µM. For the same compound, the TGI [31] was > 100 µM, the TGI [32] was > 100 µM and the TGI [33] was > 100 µM. For the same compound, the TGI [34] was > 100 µM, the TGI [35] was > 100 µM and the TGI [36] was > 100 µM. For the same compound, the TGI [37] was > 100 µM, the TGI [38] was > 100 µM and the TGI [39] was > 100 µM. For the same compound, the TGI [40] was > 100 µM, the TGI [41] was > 100 µM and the TGI [42] was > 100 µM. For the same compound, the TGI [43] was > 100 µM, the TGI [44] was > 100 µM and the TGI [45] was > 100 µM. The TGI [46] was > 100 µM, the TGI [47] was > 100 µM and the TGI [48] was > 100 µM. For the same compound, the TGI [49] was > 100 µM and the TGI [50] was > 100 µM.
For O=C([O-])c1cc(I)cc(I)c1[OH2+].O=C([O-])c1cc(I)cc(I)c1[OH2+].[Mn+2], the GI50 [1] was 32 µM, the TGI [1] was > 100 µM and the GI50 [5] was 46.2 µM. The TGI [5] was > 100 µM, the GI50 [6] was 20 µM and the TGI [6] was 44.2 µM. For the same compound, the GI50 [7] was 17.8 µM, the TGI [7] was 40.2 µM and the GI50 [8] was 36.7 µM. For the same compound, the TGI [8] was > 100 µM, the GI50 [9] was 67.3 µM and the TGI [9] was > 100 µM. For the same compound, the GI50 [10] was 37.7 µM, the TGI [10] was > 100 µM and the GI50 [11] was 51 µM. The TGI [11] was > 100 µM, the GI50 [12] was > 100 µM and the TGI [12] was > 100 µM. For the same compound, the GI50 [13] was > 100 µM, the TGI [13] was > 100 µM and the GI50 [14] was 24.8 µM. For the same compound, the TGI [14] was 60 µM, the GI50 [15] was 97.8 µM and the TGI [15] was > 100 µM. For the same compound, the GI50 [16] was 33.9 µM, the TGI [16] was > 100 µM and the GI50 [51] was > 100 µM. The TGI [51] was > 100 µM, the GI50 [52] was 22.2 µM and the TGI [52] was 69.2 µM. The GI50 [18] was > 100 µM, the TGI [18] was > 100 µM and the GI50 [19] was 34.2 µM. The TGI [19] was > 100 µM, the GI50 [20] was 18.8 µM and the TGI [20] was 43.1 µM. For the same compound, the GI50 [21] was 21.5 µM, the TGI [21] was 61.3 µM and the GI50 [22] was 32.1 µM. For the same compound, the TGI [22] was > 100 µM, the GI50 [24] was 35.2 µM and the TGI [24] was > 100 µM. The GI50 [25] was 33.5 µM, the TGI [25] was > 100 µM and the GI50 [26] was 81.7 µM. For the same compound, the TGI [26] was > 100 µM, the GI50 [53] was 18.9 µM and the TGI [53] was 42.9 µM. For the same compound, the GI50 [27] was 42.9 µM, the TGI [27] was > 100 µM and the GI50 [28] was 72.3 µM. The TGI [28] was > 100 µM, the GI50 [29] was 56.4 µM and the TGI [29] was > 100 µM. The GI50 [30] was 30.4 µM, the TGI [30] was 89.4 µM and the GI50 [31] was > 100 µM. For the same compound, the TGI [31] was > 100 µM, the GI50 [32] was 48.5 µM and the TGI [32] was > 100 µM. For the same compound, the GI50 [33] was 45.7 µM, the TGI [33] was > 100 µM and the GI50 [34] was 20.3 µM. The TGI [34] was 59 µM, the GI50 [35] was > 100 µM and the TGI [35] was > 100 µM. The GI50 [36] was > 100 µM, the TGI [36] was > 100 µM and the GI50 [37] was 33.7 µM. For the same compound, the TGI [37] was 74.1 µM, the GI50 [38] was 35.6 µM and the TGI [38] was > 100 µM. The GI50 [39] was 19.4 µM, the TGI [39] was 49.4 µM and the GI50 [41] was > 100 µM. For the same compound, the TGI [41] was > 100 µM, the GI50 [42] was 53.2 µM and the TGI [42] was > 100 µM. For the same compound, the GI50 [43] was 64 µM, the TGI [43] was > 100 µM and the GI50 [44] was > 100 µM. The TGI [44] was > 100 µM, the GI50 [45] was > 100 µM and the TGI [45] was > 100 µM. It also gave a GI50 [46] of 29 µM, a TGI [46] of 87.7 µM and a GI50 [47] of 24 µM. The TGI [47] was 77.6 µM, the GI50 [48] was > 100 µM and the TGI [48] was > 100 µM. For the same compound, the GI50 [49] was > 100 µM, the TGI [49] was > 100 µM and the GI50 [50] was 60.1 µM. It also gave a TGI [50] of 99.8 µM.
